From US20150299648A1, “IMPROVED CULTIVATION MEDIA AND PROCESS FOR IMPROVED PROTEIN PRODUCTION BY PICHIA STRAINS” (priority 2012, published 2015)

Columns and labels:
Format in all cases: cell-based, Pichia pastoris
[1] = system: glycoengineered P. pastoris (YGLY13979) strain producing a monoclonal antibody; assay: Effect of maltitol and Mix2 supplements on fed-batch fermentation profile; settings: for Cell lysis: methanol induction phase
Protocol: The osmoprotective effect of maltitol (50 g/L) in combination with a supplement comprising a mixture of nutrients (Mix2) consisting of amino acid (AA1), vitamins (Vit4), trace metal ions (TM4), and basal salts (BSM2) as described in Table 2 was also evaluated using a glycoengineered P. pastoris (YGLY13979) strain producing a monoclonal antibody was cultivated in 1 L bioreactors (Biostat Q-plus, Satorius, Germany).
A P. pastoris YGLY13979 producing a monoclonal antibody was cultivated in 1 L bioreactors (Biostat Q-plus, Satorius, Germany). For fermentation in 1 L bioreactor, a vial (1 mL) of RCB (Research Cell Bank) was inoculated into 200 mL of BSGY medium in 1 L-baffled flask. The culture incubated at 24° C., while shaking on an orbital shaker at 180 rpm for 48±4 h. The bioreactor was inoculated with a 10% volumetric ratio of seed to initial BSGY medium. Cultivation conditions were following: temperature set at 24±0.5° C., pH controlled at 6.5±0.1 with 30% ammonium hydroxide, dissolved oxygen was maintained at 20% of saturation by cascading agitation rate on the addition of pure oxygen to the fixed airflow rate of 0.7 vvm. The fermentation profile of the production strain was examined using four different cultivation conditions after batch phase.
For the control, a 50% glycerol solution containing 12.5 mL/L of PTM1 salts (6.5 g FeSO4.7H2O, 2.0 g ZnCl2, 0.6 g CuSO4.5H2O, 3.0 g MnSO4.7H2O, 0.5 g CoCl2.6H2O, 0.2 g NaMoO4.2H2O, 0.2 g biotin, 80 mg NaI, 20 mg H3BO4 per L) was fed constantly at an initial rate of 0.08 h^−1 for 8 h After depletion of the initial glycerol (4%).
For Mix2, 10 mL AA1, 4 mL Vit4, 4 mL TM4, and 4 mL BSM2 were mixed with 62.5 mL of 80% glycerol and 15.5 mL of water. The Mix2 solution was fed during the glycerol fed-batch period instead of regular glycerol solution, which was used for the control.
For Maltitol, 43.5 mL of 80% matitol solution was added into bioreactor to achieve 50 g/L concentration at the end of glycerol fed-batch phase.
For Maltitol+Mix2, two conditions of Maltitol and Mix2 were combined.
Induction was initiated after a 30 min starvation phase when methanol was fed. Methanol containing 12.5 mL/L of PTM1 salts (6.5 g FeSO4.7H2O, 2.0 g ZnCl2, 0.6 g CuSO4.5H2O, 3.0 g MnSO4.7H2O, 0.5 g CoCl2.6H2O, 0.2 g NaMoO4.2H2O, 0.2 g biotin, 80 mg NaI, 20 mg H3BO4 per L) was fed constantly starting at 1.33 g/L/h under methanol limited condition. Agitation speed was changed from cascade mode with agitation speed and pure oxygen.

[2] = system: P. pastoris YGLY21058 strain producing glycosylated insulin precursor (GIP); assay: Screening of sugars and sugar alcohols as osmoprotectants in fed-batch cultivation
Protocol: The P. pastoris YGLY21058 strain was cultivated in 1 L glass bioreactors (DASGIP, Germany). For fermentation in 1 L bioreactor, a vial (1 mL) of RCB (Research Cell Bank) was inoculated into 200 mL of Seed medium in 1 L-baffled flask. The culture incubated at 24° C., while shaking on an orbital shaker at 180 rpm for 48±4 h. The bioreactor was inoculated with a 10% volumetric ratio of seed to initial BSGY medium. Cultivation conditions were following: temperature set at 24±0.5° C., pH controlled at 6.5±0.1 with 30% ammonium hydroxide, dissolved oxygen was maintained at 20% of saturation by cascading agitation rate on the addition of pure oxygen to the fixed airflow rate of 0.7 vvm. After depletion of the initial glycerol (4%), a 50% glycerol solution containing 12.5 mL/L of PTM1 salts (6.5 g FeSO4.7H2O, 2.0 g ZnCl2, 0.6 g CuSO4.5H2O, 3.0 g MnSO4.7H2O, 0.5 g CoCl2.6H2O, 0.2 g NaMoO4.2H2O, 0.2 g biotin, 80 mg NaI, 20 mg H3BO4 per L) was fed constantly at an initial rate of 0.08 h^−1 for 8 h. Induction was initiated after a 30 min starvation phase when methanol was fed. Methanol was fed constantly starting at 1.33 g/L/h under methanol limited condition. Agitation speed was changed from cascade mode with agitation speed and pure oxygen.
For comparisons, each sugar or sugar alcohol was added at 50 g/L in initial batch medium of BSGY. In case of control without sugar supplementation (BSGY medium only), glycosylated insulin precursor (GIP) was detectable at 58 h of induction, but not detected at 80 h of induction due to most likely proteolytic degradation caused by heavy cell lysis (Lanes 1 and 2 of FIG. 2 A).

[3] = system: P. pastrois strain yGLY21058; assay: Fermentability of sugars or sugar alcohols on M agar plate; settings: 6 days at 30° C.
Protocol: The 1 mL of RCB (Research Cell Bank in 20% of glycerol) for P. pastrois strain yGLY21058 producing glycosylated insulin precursor (GIP) was inoculated in 200 mL of Seed medium (4% glycerol, 1% yeast extract, 2% soytone, 1.34% YNB without amino acids, 0.23% K2HPO4, 1.19% KH2PO4, 8 μg/L biotin) and cultivated for 48 h at 24° C. The cell pellet was harvested by centrifugation at 4,000 rpm for 10 min and re-suspended with PBS buffer (pH 7.4) to wash the cell twice. The 0.1 mL of cell suspension with wash buffer was transferred and spread onto the minimal agar plate containing each sugar or sugar alcohol (1% w/v), which is listed in Table 1.
YPD (1% yeast extract, 2% yeast peptone, and 1% glucose) agar plate was used for the positive control and a minimal agar plate without carbon sources (M) was used for negative control. Growth of Pichia pastoris on M agar plate containing single carbon source was categorized as no (−), slow (+), moderate (++), and fast (+++) colony formation for 6 days in Table 1.

Compound: OC[C@@H](O)[C@@H](O[C@H]1O[C@H](CO)[C@@H](O)[C@H](O)[C@H]1O)[C@H](O)[C@@H](O)CO [Maltitol, 4-O-α-glucopyranosyl-D-sorbitol]
- Increase of maximum titer of anti-Her2 monoclonal antibody over control culture ([1]; 5% maltitol, 600 mOsm/kg in induction phase): 120%
- Cell lysis ([1]; vs BSGY control): reduced the cell lysis significantly
- Cell lysis ([1]; vs BSGY control, listed as maltitol): significantly reduced
- Effective range of concentration in BSGY medium ([1]; to increase and maintain osmolality during induction phase): higher than 25 g/L
- Cell yield ([1]; vs BSGY control): slight reduction of cell yield
- Intact insulin precursor produced ([2]; 2% maltitol, 83 h of post-induction): intact protein was produced
- Index of cell lysis (double stranded DNA released into culture medium) ([2]; 50 g/L in initial batch BSGY, 80 h of induction): < 1 mg DNA/L
- Intact GIP molecule after 80 h-induction (SDS-PAGE) ([2]; 50 g/L in initial batch medium of BSGY): intact GIP molecule was maintained
- Intact GIP produced ([2]; 80 h of induction): 100 mg/L
- Robustness of Pichia production strains ([2]; methanol induction phase of cultivation): significantly improved the robustness
- Volumetric productivity of GIP/insulin relative to control ([2]; vs control without supplementation): 2 fold
- Fermentability category from colony formation on the plate ([3]; minimal agar plate): strict non-fermentable substrates
- Growth on M agar ([3]; single carbon source 1% w/v): −
